Experimental findings from patent US6936600B2, “Sorbitol dehrydrogenase inhibitors” (Pfizer Inc, priority 1999, dated 2005) are described below.

The term melting point denotes the temperature, or range, at which the solid turns liquid.

For the compound `C[C@@H](O)c1nccc(N2CCc3ncncc3C2)n1` [Example 253], the melting point lay within 79 to 82 °C.

The compound `C[C@@H](O)c1nccc(N2CCC(C3CCN(c4ccnc([C@@H](C)O)n4)CC3)CC2)n1` [Example 3, 1R-(4-{1′-[2-(1R-Hydroxy-ethyl)-pyrimidin-4-yl]-[4,4′]bipiperidinyl-1-yl}-pyrimidin-2-yl)-ethanol] had a melting point of 144 to 153 °C. Compound `Cc1nc2c(c(Sc3ccccc3)n1)CCN(c1ccnc([C@@H](C)O)n1)C2` [Example 98] displayed a melting point of 103 to 105 °C. Next, `C[C@@H](OC(=O)Cc1nn(Cc2nc3cc(C(F)(F)F)ccc3s2)c(=O)c2ccccc12)c1nccc(N2CCN(C(=O)/C=C/c3cccs3)CC2)n1` [Example 276, (E)-[4-Oxo-3-(5-trifluoromethyl-benzothiazol-2-ylmethyl)-3,4-dihydro-phthalazin-1-yl]-acetic acid 1R-{4-[4-(3-thiophen-2-yl-acryloyl)-piperazin-1-yl]-pyrimidin-2-yl}-ethyl ester]: 105 to 109 °C; `C[C@@H](O)c1nccc(N2CCc3c(nc(-c4ccccc4)nc3-c3ccccc3)C2)n1` [Example 91]: 73 to 75 °C. On to `C[C@@H](O)c1nccc(N2C[C@@H]3C[C@H]2CN3S(=O)(=O)N(C)C)n1` [Example 120], for which the melting point lay within 110 to 111 °C.

Consider `C[C@@H](O)c1nccc(N2CCc3nc(-c4ccccc4)ncc3C2)n1` [Example 257], for which the melting point fell in the range of 128 to 131 °C. Next, `C[C@@H]1CN(c2ccnc([C@@H](C)O)n2)C[C@H](C)N1C(=O)C1CCCCC1` [Example 131, Cyclohexyl-{4-[2-(1R-hydroxy-ethyl)-pyrimidin-4-yl]-2R,6S-dimethyl-piperazin-1-yl}-methanone]: 174 to 175 °C; `C[C@@H]1CN(c2ccnc(-c3cccnc3)n2)C[C@H](C)N1c1ccnc([C@@H](C)O)n1` [Example 201, 1R-{4-[2R,6S-Dimethyl-4-(2-pyridin-3-yl-pyrimidin-4-yl)-piperazin-1-yl]-pyrimidin-2-yl}-ethanol]: 61 to 70 °C. `C[C@@H](O)c1nccc(N2C[C@@H]3C[C@H]2CN3S(=O)(=O)c2cccs2)n1` [Example 116] gave a melting point of 84 to 86 °C. The figure for `C[C@@H]1CN(c2nc3ncccc3o2)C[C@H](C)N1c1ccnc([C@@H](C)O)n1` [Example 31, 1R-[4-(2R,6S-Dimethyl-4-oxazolo-[4,5-b]pyridin-2-yl-piperazin-1-yl)-pyrimidin-2-yl]-ethanol] is 231 to 233 °C; for `C[C@@H](O)c1nccc(N2CCn3c(nnc3-c3nc4ccccc4s3)C2)n1` [Example 259, (R)-1-[4-(3-Benzothiazol-2-yl-5,6-dihydro-8H-[1,2,4]triazolo[4,3-a]pyrazin-7-yl)-pyrimidin-2-yl]-ethanol] it is 216.5 to 218.5 °C; for `C[C@@H](O)c1nccc(N2CCc3cc(-c4ccsc4)ccc3C2)n1` (stereo in doubt) [Example 248, 1-[4-(6-Thiophen-3-yl-3,4-dihydro-1H-isoquinolin-2-yl)-pyrimidin-2-yl]-ethanol] it is 125.5 to 127.5 °C. Next, `Cc1nc2c(c(N3CCc4ccccc43)n1)CCN(c1ccnc([C@@H](C)O)n1)C2` [Example 99]: 128 to 131 °C; `C[C@@H]1CN(c2ccnc([C@@H](C)O)n2)C[C@H](C)N1C(=O)CSc1ncccn1` [Example 160, 1-{4-[2-(1R-Hydroxy-ethyl)-pyrimidin-4-yl]-2R,6S-dimethyl-piperazin-1-yl}-2-(pyrimidin-2-ylsulfanyl)-ethanone]: 60 to 70 °C; `COc1nc(CO)nc(N2[C@H](C)CN(c3ccnc([C@@H](C)O)n3)C[C@@H]2C)n1` [Example 236, 1R-{4-[4-(4-Hydroxymethyl-6-methoxy-[1,3,5]triazin-2-yl)-3R,5S-dimethyl-piperazin-1-yl]-pyrimidin-2-yl}-ethanol]: 170 to 171 °C.
